The source of these data is US10259818B2, “Bicyclic azaheterocyclobenzylamines as PI3K inhibitors” (Incyte Corporation, priority 2012, dated 2019).

One test has as its target PI3Kδ (Homo sapiens (Human), UniProt O00329). In words: PI3K enzyme assay, [γ-33P]ATP filter plate (Example A2). It counts as biochemical. To be noted: Assay A2 (filter plate, 1000 μM ATP). The method, then:
Example A2: PI3K Enzyme Assay
Lipid kinase substrate, phosphoinositol-4,5-bisphosphate (PIP2), are purchased from Echelon Biosciences (Salt Lake City, Utah). PI3K isoforms α, β, δ and γ are purchased from Millipore (Bedford, Mass.). ATP, MgCl2, DTT, EDTA, MOPS and CHAPS are purchased from Sigma-Aldrich (St. Louis, Mo.).
The kinase reaction are conducted in clear-bottom 96-well plate from Thermo Fisher Scientific in a final volume of 24 μL. Inhibitors are first diluted serially in DMSO and added to the plate wells before the addition of other reaction components. The final concentration of DMSO in the assay is 0.5%. The PI3K assays are carried out at room temperature in 20 mM MOPS, pH 6.7, 10 mM MgCl2, 5 mM DTT and CHAPS 0.03%. The reaction mixture is prepared containing 50 μM PIP2, kinase and varying concentration of inhibitors. Reactions are initiated by the addition of ATP containing 2.2 μCi [γ-^33P]ATP to a final concentration of 1000 μM. The final concentration of PI3K isoforms α, β, δ and γ in the assay were 1.3, 9.4, 2.9 and 10.8 nM, respectively. Reactions are incubated for 180 minutes and terminated by the addition of 100 μL of 1 M potassium phosphate pH 8.0, 30 mM EDTA quench buffer. A 100 μL aliquot of the reaction solution are then transferred to 96-well Millipore MultiScreen IP […] PVDF filter plate (The filter plate is prewetted with 200 μL 100% ethanol, distilled water, and 1 M potassium phosphate pH 8.0, respectively). The filter plate is aspirated on a Millipore Manifold under vacuum and washed with 18×200 μL wash buffer containing 1 M potassium phosphate pH 8.0 and 1 mM ATP. After drying by aspiration and blotting, the plate is air dried in an incubator at 37° C. overnight. Packard TopCount adapter (Millipore) is then attached to the plate followed with addition of 120 μL Microscint 20 scintillation cocktail (Perkin Elmer) in each well. After the plate sealing, the radioactivity of the product is determined by scintillation counting on Topcount (Perkin-Elmer). IC50 determination is performed by fitting the curve of percent control activity versus the log of the inhibitor concentration using the GraphPad Prism 3.0 software.

The subject of test [1] is SUDHL-6 cell line (diffuse large B cell lymphoma). Description: SUDHL-6 cell proliferation assay (Example B3). The format is cell-based. To be noted: SUDHL-6 cells, 3 days, Cell Titer-GLO. In short, it runs like this:
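Cells in RPMI/10% FBS, 5000 per well, exposed to a concentration range of test compound for 3 days. Viability read as ATP content by CellTiter-Glo luminescence after 10 min at room temperature; IC50 derived from the luminescence.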
Background: In ATP-based viability assays light output follows the ATP content of the culture.

PI3Kδ, sequence (O00329 whole entry): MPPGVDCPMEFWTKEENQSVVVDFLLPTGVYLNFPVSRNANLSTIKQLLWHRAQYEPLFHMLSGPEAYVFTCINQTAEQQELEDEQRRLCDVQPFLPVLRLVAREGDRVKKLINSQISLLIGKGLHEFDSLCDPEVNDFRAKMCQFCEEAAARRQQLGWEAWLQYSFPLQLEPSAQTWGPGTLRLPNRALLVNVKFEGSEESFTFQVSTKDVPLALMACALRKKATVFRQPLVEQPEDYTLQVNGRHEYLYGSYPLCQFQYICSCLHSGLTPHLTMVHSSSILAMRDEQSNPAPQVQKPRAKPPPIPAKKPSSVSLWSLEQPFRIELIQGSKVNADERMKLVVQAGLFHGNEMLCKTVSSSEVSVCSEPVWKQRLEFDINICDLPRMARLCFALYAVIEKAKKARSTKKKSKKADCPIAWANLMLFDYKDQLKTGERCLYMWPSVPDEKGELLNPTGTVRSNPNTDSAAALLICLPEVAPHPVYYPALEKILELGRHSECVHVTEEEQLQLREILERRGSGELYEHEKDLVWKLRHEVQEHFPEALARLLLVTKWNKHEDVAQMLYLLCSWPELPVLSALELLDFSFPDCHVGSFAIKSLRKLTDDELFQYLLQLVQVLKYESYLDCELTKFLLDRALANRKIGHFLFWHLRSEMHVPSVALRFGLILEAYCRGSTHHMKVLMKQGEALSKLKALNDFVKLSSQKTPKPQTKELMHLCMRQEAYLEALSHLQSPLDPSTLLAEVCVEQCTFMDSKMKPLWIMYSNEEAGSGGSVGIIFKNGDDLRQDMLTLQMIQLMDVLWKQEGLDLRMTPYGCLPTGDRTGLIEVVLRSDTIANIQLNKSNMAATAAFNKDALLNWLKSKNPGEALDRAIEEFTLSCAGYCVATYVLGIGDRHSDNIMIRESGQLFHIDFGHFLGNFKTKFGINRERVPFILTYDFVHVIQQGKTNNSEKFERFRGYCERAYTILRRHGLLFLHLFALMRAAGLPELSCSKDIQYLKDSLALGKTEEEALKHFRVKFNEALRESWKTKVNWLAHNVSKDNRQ
PI3Kδ, sequence (P27986 whole entry partner): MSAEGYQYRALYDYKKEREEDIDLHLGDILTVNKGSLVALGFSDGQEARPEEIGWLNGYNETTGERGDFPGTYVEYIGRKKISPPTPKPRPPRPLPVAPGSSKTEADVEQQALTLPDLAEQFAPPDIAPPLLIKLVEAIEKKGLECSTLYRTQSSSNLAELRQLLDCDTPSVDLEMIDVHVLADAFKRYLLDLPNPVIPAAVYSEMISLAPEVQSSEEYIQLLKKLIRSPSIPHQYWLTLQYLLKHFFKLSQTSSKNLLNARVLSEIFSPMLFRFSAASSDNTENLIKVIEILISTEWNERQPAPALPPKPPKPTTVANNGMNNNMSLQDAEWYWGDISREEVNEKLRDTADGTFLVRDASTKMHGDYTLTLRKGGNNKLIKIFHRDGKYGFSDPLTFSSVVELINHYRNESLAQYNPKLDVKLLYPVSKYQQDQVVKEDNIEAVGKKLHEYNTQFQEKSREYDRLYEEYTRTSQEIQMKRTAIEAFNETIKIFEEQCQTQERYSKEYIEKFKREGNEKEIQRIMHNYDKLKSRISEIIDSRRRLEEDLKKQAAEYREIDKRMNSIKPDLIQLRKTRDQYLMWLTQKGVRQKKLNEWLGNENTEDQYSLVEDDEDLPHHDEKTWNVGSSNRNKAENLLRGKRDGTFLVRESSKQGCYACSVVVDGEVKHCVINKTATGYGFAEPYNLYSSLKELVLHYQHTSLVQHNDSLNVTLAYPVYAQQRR

Consider `Cc1nn(C(C)c2cc(Cl)c(F)c3c2OC(C)CN(C2CN(C(=O)OC(C)(C)C)C2)C3)c2ncnc(N)c12` (single isomer, unassigned) [Example 27, tert-Butyl 3-[9-[1-(4-amino-3-methyl-1H-pyrazolo[3,4-d]pyrimidin-1-yl)ethyl]-7-chloro-6-fluoro-2-methyl-2,3-dihydro-1,4-benzoxazepin-4(5H)-yl]azetidine-1-carboxylate], for which the IC50 (usually the concentration that inhibits the measured activity by half) was at most 100 nM on PI3Kδ and at most 500 nM in test [1]. Consider `COC(=O)N1CC(N2Cc3c(F)c(Cl)cc(C(C)n4nc(C)c5c(N)ncnc54)c3OC(C)C2)C1` (single isomer, unassigned) [Example 79, methyl 3-[9-[1-(4-amino-3-methyl-1H-pyrazolo[3,4-d]pyrimidin-1-yl)ethyl]-7-chloro-6-fluoro-2-methyl-2,3-dihydro-1,4-benzoxazepin-4(5H)-yl]azetidine-1-carboxylate], for which, at PI3Kδ, the IC50 is at most 100 nM. Turning to `Cc1nn(C(C)c2cc(Cl)c(F)c3c2OCCCN(S(C)(=O)=O)C3)c2ncnc(N)c12` (stereo not drawn) [Example 45, 1-{1-[8-Chloro-7-fluoro-5-(methylsulfonyl)-3,4,5,6-tetrahydro-2H-1,5-benzoxazocin-10-yl]ethyl}-3-methyl-1H-pyrazolo[3,4-d]pyrimidin-4-amine], the IC50 is at most 100 nM against PI3Kδ and at most 500 nM in test [1] (Homo sapiens, SU-DHL-6, 72 h).

`Cc1nn(C(C)c2cc(Cl)c(C#N)c3c2O[C@@H](C)CN(C2CN(CCO)C2)C3)c2ncnc(N)c12` (stereo partly drawn) [Example 56, (2S)-9-[1-(4-Amino-3-methyl-1H-pyrazolo[3,4-d]pyrimidin-1-yl)ethyl]-7-chloro-4-[1-(2-hydroxyethyl)azetidin-3-yl]-2-methyl-2,3,4,5-tetrahydro-1,4-benzoxazepine-6-carbonitrile] came in with an IC50 in test [1] (Homo sapiens, SU-DHL-6, 72 h) of at most 500 nM.

Molecule `Cc1nn(C(C)c2cc(Cl)c(C#N)c3c2O[C@@H](C)CN(C2CN(CCO)C2)C3)c2ncnc(N)c12` (stereo partly drawn) [Example 57, (2S)-9-[1-(4-Amino-3-methyl-1H-pyrazolo[3,4-d]pyrimidin-1-yl)ethyl]-7-chloro-4-[1-(2-hydroxyethyl)azetidin-3-yl]-2-methyl-2,3,4,5-tetrahydro-1,4-benzoxazepine-6-carbonitrile] registered an IC50 in test [1] of at most 500 nM. In test [1] (Homo sapiens, SU-DHL-6, 72 h), `Cc1nn(C(C)c2cc(Cl)c(C#N)c3c2OCCN(CCO)C3)c2ncnc(N)c12` (stereo not drawn) [Example 58, 9-[1-(4-Amino-3-methyl-1H-pyrazolo[3,4-d]pyrimidin-1-yl)ethyl]-7-chloro-4-(2-hydroxyethyl)-2,3,4,5-tetrahydro-1,4-benzoxazepine-6-carbonitrile] registered an IC50 of at most 500 nM. Same read-out and setting: under `CC(=O)N1CC(N2Cc3c(F)c(Cl)cc(C(C)n4nc(C)c5c(N)ncnc54)c3OC(C)C2=O)C1` (stereo not drawn) [Example 71, 4-(1-Acetylazetidin-3-yl)-9-[1-(4-amino-3-methyl-1H-pyrazolo[3,4-d]pyrimidin-1-yl)ethyl]-7-chloro-6-fluoro-2-methyl-4,5-dihydro-1,4-benzoxazepin-3(2H)-one] stands 500 to 1000 nM; under `Cc1nn(C(C)c2cc(Cl)c(F)c3c2OCCN(C2CN(C(=O)N(C)C)C2)C3)c2ncnc(N)c12` (stereo not drawn) [Example 73, 3-[9-[1-(4-amino-3-methyl-1H-pyrazolo[3,4-d]pyrimidin-1-yl)ethyl]-7-chloro-6-fluoro-2,3-dihydro-1,4-benzoxazepin-4(5H)-yl]-N,N-dimethylazetidine-1-carboxamide], at most 500 nM; under `Cc1nn(C(C)c2cc(Cl)c(F)c3c2OCCN(C2CN(S(=O)(=O)N(C)C)C2)C3)c2ncnc(N)c12` (stereo not drawn) [Example 74, 3-[9-[1-(4-amino-3-methyl-1H-pyrazolo[3,4-d]pyrimidin-1-yl)ethyl]-7-chloro-6-fluoro-2,3-dihydro-1,4-benzoxazepin-4(5H)-yl]-N,N-dimethylazetidine-1-sulfonamide], 500 to 1000 nM.

In test [1] (Homo sapiens, SU-DHL-6, 72 h), `Cc1nn(C(C)c2cc(Cl)c(F)c3c2OC(C)CN(C2CN(S(C)(=O)=O)C2)C3)c2ncnc(N)c12` (stereo not drawn) [Example 75, 1-(1-{7-chloro-6-fluoro-2-methyl-4-[1-(methylsulfonyl)azetidin-3-yl]-2,3,4,5-tetrahydro-1,4-benzoxazepin-9-yl}ethyl)-3-methyl-1H-pyrazolo[3,4-d]pyrimidin-4-amine] showed an IC50 of at most 500 nM.

For `CCC(=O)N1CC(N2Cc3c(F)c(Cl)cc(C(C)n4nc(C)c5c(N)ncnc54)c3OC(C)C2)C1` (stereo not drawn) [Example 76, 1-{1-[7-chloro-6-fluoro-2-methyl-4-(1-propionylazetidin-3-yl)-2,3,4,5-tetrahydro-1,4-benzoxazepin-9-yl]ethyl}-3-methyl-1H-pyrazolo[3,4-d]pyrimidin-4-amine], the IC50 in test [1] (Homo sapiens, SU-DHL-6, 72 h) is at most 500 nM.

The molecule `Cc1nn([C@@H](C)c2cc(Cl)c(F)c3c2O[C@@H](C)CN(C2CN(C[C@H](C)O)C2)C3)c2ncnc(N)c12` [Example 85, (2S)-1-{3-[(2S)-9-[(1S)-1-(4-amino-3-methyl-1H-pyrazolo[3,4-d]pyrimidin-1-yl)ethyl]-7-chloro-6-fluoro-2-methyl-2,3-dihydro-1,4-benzoxazepin-4(5H)-yl]azetidin-1-yl}propan-2-ol] had an IC50 in test [1] (Homo sapiens, SU-DHL-6, 72 h) of at most 500 nM. On to `Cc1nn([C@@H](C)c2cc(Cl)c(F)c3c2O[C@@H](C)CN(C2CN(C[C@@H](C)O)C2)C3)c2ncnc(N)c12` [Example 86, (2R)-1-{3-[(2S)-9-[(1S)-1-(4-amino-3-methyl-1H-pyrazolo[3,4-d]pyrimidin-1-yl)ethyl]-7-chloro-6-fluoro-2-methyl-2,3-dihydro-1,4-benzoxazepin-4(5H)-yl]azetidin-1-yl}propan-2-ol], for which the IC50 in test [1] (Homo sapiens, SU-DHL-6, 72 h) is at most 500 nM. `CCC(=O)N1CC(N2CCOc3c(C(C)n4nc(C)c5c(N)ncnc54)cc(Cl)c(C#N)c3C2)C1` (stereo not drawn) [Example 89, 9-[1-(4-amino-3-methyl-1H-pyrazolo[3,4-d]pyrimidin-1-yl)ethyl]-7-chloro-4-(1-propionylazetidin-3-yl)-2,3,4,5-tetrahydro-1,4-benzoxazepine-6-carbonitrile] yielded an IC50 in test [1] (Homo sapiens, SU-DHL-6, 72 h) of at most 500 nM. Same read-out and setting: as for `Cc1nn(C(C)c2cc(Cl)c(C#N)c3c2OCCN(C2CN(S(C)(=O)=O)C2)C3)c2ncnc(N)c12` (stereo not drawn) [Example 90, 9-[1-(4-amino-3-methyl-1H-pyrazolo[3,4-d]pyrimidin-1-yl)ethyl]-7-chloro-4-[1-(methylsulfonyl)azetidin-3-yl]-2,3,4,5-tetrahydro-1,4-benzoxazepine-6-carbonitrile], the figure is at most 500 nM; as for `Cc1nn(C(C)c2cc(Cl)c(C#N)c3c2OCCN(C2CN(C(=O)NC(C)C)C2)C3)c2ncnc(N)c12` (stereo not drawn) [Example 91, 3-[9-[1-(4-amino-3-methyl-1H-pyrazolo[3,4-d]pyrimidin-1-yl)ethyl]-7-chloro-6-cyano-2,3-dihydro-1,4-benzoxazepin-4(5H)-yl]-N-isopropylazetidine-1-carboxamide], at most 500 nM; as for `CCOC(=O)N1CC(N2CCOc3c(C(C)n4nc(C)c5c(N)ncnc54)cc(Cl)c(C#N)c3C2)C1` (stereo not drawn) [Example 92, ethyl 3-[9-[1-(4-amino-3-methyl-1H-pyrazolo[3,4-d]pyrimidin-1-yl)ethyl]-7-chloro-6-cyano-2,3-dihydro-1,4-benzoxazepin-4(5H)-yl]azetidine-1-carboxylate], at most 500 nM. Regarding `CCC(=O)N1CC(N2Cc3c(C#N)c(Cl)cc(C(C)n4nc(C)c5c(N)ncnc54)c3OC(C)C2)C1` (stereo not drawn) [Example 96, 9-[1-(4-amino-3-methyl-1H-pyrazolo[3,4-d]pyrimidin-1-yl)ethyl]-7-chloro-2-methyl-4-(1-propionylazetidin-3-yl)-2,3,4,5-tetrahydro-1,4-benzoxazepine-6-carbonitrile], the concentration for half-maximal inhibition (IC50) was at most 100 nM against PI3Kδ and at most 500 nM in test [1] (Homo sapiens, SU-DHL-6, 72 h).
